Reference: patent US5889007A, “10, 11-methanodibenzosuberane derivatives” (priority 1995, dated 1999)
Where two headings read alike, the source gives them in different places.

Tests used:
[1] = Determination of Stability at Acid pH (HPLC, 0.01N HCl); assay type: physicochemical; details: 0.01N HCl (pH 2), 37° C.
Description: Determination of Stability at Acid pH
Test compounds (15 μg) were dissolved in 3 ml of 0.01N HCl (pH 2) and incubated at 37° C. […] The test compounds and their degradation products were monitored by UV absorption at 240 nm. Disappearance of the parent compound was expressed as a percent peak height relative to time zero, from which t1/2 values were determined graphically, as follows.

multidrug resistance [2] = details: anticancer drug potentiator; cited from earlier work
[3] = cited from earlier work
[4] = cited from earlier work; remark: listed apart in the source
multidrug resistance [5] = details: compared with MS-073; cited from earlier work
drug-resistant malaria = details: in vitro; cited from earlier work

Compound: OC(COc1cccc2ncccc12)CN1CCN(C2c3ccccc3C3C(c4ccccc42)C3(F)F)CC1 (racemic) [(2R,S)-5-{3-[4-(10,11-difluoromethanodibenzosuber-5-yl)piperazine-1-yl]-2-hydroxypropoxy}quinoline]
- half-life [1]: > 72 h

Compound: OC(COc1cccc2ncccc12)CN1CCN([C@@H]2c3ccccc3[C@H]3C[C@H]3c3ccccc32)CC1 (relative stereo) [(2R,S)-anti-5-{3-[4-(10,11-methanodibenzosuber-5-yl)piperazin-1-yl]-2-hydroxypropoxy}quinoline]
- half-life [1]: 2.5 h

Compound: OC(COc1cccc2ncccc12)CN1CCN(C2c3ccccc3C3C(Cl)C3c3ccccc32)CC1 [(2R,S)-anti-5-{3-[4-(10,11-chloromethanodibenzosuber-5-yl)piperazine-1-yl]-2-hydroxypropoxy}quinoline]
- t1/2 [1]: > 72 h

Compound: OC(COc1cccc2ncccc12)CN1CCN(C2c3ccccc3CCc3ccccc32)CC1 (stereo not shown) [MS-073]
- half-life [1]: 0.25 h
- activity in in vitro testing (multidrug resistance [2]): highly active
- oral bioavailability ([3]; oral): poor oral bioavailability
- stability in solution [4]: instability problems in solution

Compound: O=C(C(c1ccccc1)c1ccccc1)N1CCN(CC(O)COc2cccc3ncccc23)CC1 (stereo not shown) [MS-209]
- effective doses (multidrug resistance [5]): higher effective doses
- oral bioavailability ([3]; in vivo, po): better stability and oral bioavailability

Compound: COc1ccc(CCN(C)CCCC(C#N)(c2ccc(OC)c(OC)c2)C(C)C)cc1OC (stereo not shown) [verapamil]
- effect in treating drug-resistant malaria (drug-resistant malaria): effective in vitro
